This is an account of results in ChEMBL document CHEMBL1126436, “Taxol Photoaffinity Label: 7-(p-Azidobenzoyl)taxol Synthesis and Biological Evaluation” (1992).

Structures are written as SMILES.

The subject of one experiment is B16. Kind of experiment: Compound was evaluated for the concentration which inhibits B16 melanoma cell proliferation by 50%. The conditions noted are these: Mus musculus, read-out: ED50 (the source's name). It is filed as functional.
A further experiment relates to Tubulin. Kind of experiment: Compound was evaluated for the in vitro concentration required to produce 50% stimulation of the microtubule assembly. The conditions noted are these: read-out: ED50 (the source's name).

With `CC(=O)O[C@H]1C(=O)[C@]2(C)[C@@H](OC(=O)c3ccc(N=[N+]=[N-])cc3)C[C@H]3OC[C@@]3(OC(C)=O)[C@H]2[C@H](OC(=O)c2ccccc2)[C@]2(O)C[C@H](OC(=O)[C@H](O)C(NC(=O)c3ccccc3)c3ccccc3)C(C)=C1C2(C)C` (some centres undefined), the EC50 in the experiment on B16 stood at 0.957 µM; in the experiment on Tubulin it was 15 µM.

As to `CC(=O)O[C@H]1C(=O)[C@@]2(C)[C@H]([C@H](OC(=O)c3ccccc3)[C@]3(O)C[C@H](OC(=O)[C@H](O)[C@@H](NC(=O)c4ccccc4)c4ccccc4)C(C)=C1C3(C)C)[C@]1(OC(C)=O)CO[C@@H]1C[C@@H]2O` [PACLITAXEL], the figures for the EC50 in the experiment on B16 and with Tubulin were 0.0315 µM and 0.7 µM, respectively.
